Consider eleven compounds from ChEMBL document CHEMBL1134060, “Synthesis and evaluation of hexahydrochrysene and tetrahydrobenzofluorene ligands for the estrogen receptor” (Bioorg Med Chem Lett, 2001).

Each structure is given as a SMILES string.

The target in experiment [1] is Estrogen receptor beta (Homo sapiens) (UniProt Q92731). Put plainly: Relative binding affinity for human Estrogen receptor beta compared to estradiol (E2).
Experiment [2] shares this target. Put plainly: Transcriptional activation in human endometrial carcinoma (HEC-1) cells expressing estrogen receptor beta at 10e-6 M. The class given is functional.
Experiment [3] concerns the target T1, Estrogen receptor (Homo sapiens) (UniProt P03372).
T1 sequence (whole entry): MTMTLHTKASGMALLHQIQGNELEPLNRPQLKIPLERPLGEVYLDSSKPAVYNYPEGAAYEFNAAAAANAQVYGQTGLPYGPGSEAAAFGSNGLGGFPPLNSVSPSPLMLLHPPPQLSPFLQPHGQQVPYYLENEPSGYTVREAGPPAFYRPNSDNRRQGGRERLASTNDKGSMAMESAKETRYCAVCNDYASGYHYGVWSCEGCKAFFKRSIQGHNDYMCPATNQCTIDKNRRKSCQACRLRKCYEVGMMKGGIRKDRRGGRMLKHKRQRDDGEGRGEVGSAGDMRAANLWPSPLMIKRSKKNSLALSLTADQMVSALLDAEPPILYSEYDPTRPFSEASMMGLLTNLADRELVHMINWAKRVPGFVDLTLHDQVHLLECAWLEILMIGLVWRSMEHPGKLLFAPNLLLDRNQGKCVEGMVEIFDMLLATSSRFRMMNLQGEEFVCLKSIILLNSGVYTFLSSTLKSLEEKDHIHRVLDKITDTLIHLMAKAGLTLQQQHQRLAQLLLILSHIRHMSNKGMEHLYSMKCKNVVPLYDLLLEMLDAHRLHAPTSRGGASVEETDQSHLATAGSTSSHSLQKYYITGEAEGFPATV
Put plainly: Antagonistic effect on 1 nM estradiol induced transcriptional activation in HEC-1 cells expressing estrogen receptor alpha at 10e-7 M. Type of experiment: functional, cell-based.

The target of experiment [4] is Estrogen receptor beta (Homo sapiens) (UniProt Q92731). Put plainly: Transcriptional activation in human endometrial carcinoma (HEC-1) cells expressing estrogen receptor beta at 10e-9 M. Type of experiment: functional.
The target is the same in experiment [5]. Put plainly: Antagonistic effect on 1 nM estradiol induced transcriptional activation in HEC-1 cells expressing estrogen receptor beta at 10e-6 M. Type of experiment: functional, cell-based.
Experiment [6] has the same target. Put plainly: Antagonistic effect on 1 nM estradiol induced transcriptional activation in HEC-1 cells expressing estrogen receptor beta at 10e-8 M. Type of experiment: functional, cell-based.
Experiment [7] has the same target. Put plainly: Antagonistic effect on 1 nM estradiol induced transcriptional activation in HEC-1 cells expressing estrogen receptor beta at 10e-7 M. The class given is functional, cell-based.
In experiment [8] the target is T1, Estrogen receptor (Homo sapiens). Put plainly: Antagonistic effect on 1 nM estradiol induced transcriptional activation in HEC-1 cells expressing estrogen receptor alpha at 10e-6 M. The class given is functional, cell-based.
In experiment [9] the target is Estrogen receptor beta (Homo sapiens) (UniProt Q92731). Put plainly: Antagonistic effect on 1 nM estradiol induced transcriptional activation in HEC-1 cells expressing estrogen receptor beta at 10e-9 M. The class given is functional, cell-based.

Chain of Estrogen receptor beta (Homo sapiens) (Q92731 whole entry): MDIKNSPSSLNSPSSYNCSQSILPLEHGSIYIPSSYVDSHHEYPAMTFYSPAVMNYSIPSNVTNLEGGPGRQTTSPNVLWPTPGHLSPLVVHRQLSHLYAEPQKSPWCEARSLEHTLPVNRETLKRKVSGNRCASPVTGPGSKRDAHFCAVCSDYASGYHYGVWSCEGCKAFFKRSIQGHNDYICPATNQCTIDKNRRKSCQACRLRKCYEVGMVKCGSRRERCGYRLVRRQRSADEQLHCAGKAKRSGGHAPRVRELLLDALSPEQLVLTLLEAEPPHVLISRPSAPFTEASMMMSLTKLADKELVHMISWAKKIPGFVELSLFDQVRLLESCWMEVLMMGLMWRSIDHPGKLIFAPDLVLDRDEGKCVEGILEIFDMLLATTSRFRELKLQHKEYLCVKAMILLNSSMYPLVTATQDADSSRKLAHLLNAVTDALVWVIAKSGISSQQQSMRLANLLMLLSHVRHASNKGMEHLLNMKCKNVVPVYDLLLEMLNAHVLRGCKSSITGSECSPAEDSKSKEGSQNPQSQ

As to `CCC1c2cc(O)ccc2[C@H]2CCc3cc(O)ccc3[C@@H]12` (stereo in doubt; 17a), the RBA in experiment [1] came to 300%.
With `O=C1c2cc(O)ccc2[C@H]2CCc3cc(O)ccc3[C@@H]12`, the RBA in [1] was 2%.
In turn, `Oc1ccc2c(c1)CC[C@H]1c3ccc(O)cc3CC[C@@H]21` registered an RBA in experiment [1] of 130%.
In [1], `Oc1ccc2c(c1)C[C@@H]1c3ccc(O)cc3CC[C@H]21` gave an RBA of 63%.
`Oc1ccc2c(c1)CC[C@@H]1c3ccc(O)cc3[C@H](c3ccc(OCCN4CCCCC4)cc3)[C@H]21`: the Response came out at 5% in [2]; 10% in experiment [3]; 70% in [4]; 5% in experiment [5]; 30% in experiment [6]; 15% in experiment [7]. For the same compound, the RBA in experiment [1] is 10%.
On to `Oc1ccc2c(c1)CCC1=C2CCc2cc(O)ccc21`, for which, in [1], the RBA was determined as 6.5%.
On to `CCC1Cc2cc(O)ccc2C2C(CC)Cc3cc(O)ccc3C12` (stereo unspecified), for which the RBA in [1] was determined as 16%.
In turn, `CC[C@@H]1Cc2cc(O)ccc2C2=C1c1ccc(O)cc1C[C@H]2CC` came in with an RBA in [1] of 144%.
On the same count and under the same terms, then `Oc1ccc2c(c1)CC[C@@H]1c3ccc(O)cc3CC[C@H]21`, with 71%.
As for `CCC1c2cc(O)ccc2[C@H]2CCc3cc(O)ccc3[C@@H]12` (stereo in doubt; 17b), in experiment [1], the RBA came to 280%.
As for `Oc1ccc2c(c1)CC[C@@H]1c3ccc(O)cc3C[C@H](c3ccc(OCCN4CCCCC4)cc3)[C@H]21`, the RBA in experiment [1] was 0.06%. In addition, the Response amounted to 25% in experiment [8], 5% in experiment [9], 105% in [6] and 104% in [7].
